According to ChEMBL document CHEMBL1201862, “PubChem BioAssay data set” (2004):
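The compound was tested at five concentrations on cells cultured in 96-well plates, with a 48-hour exposure period. The concentration for 50% growth inhibition is given as GI50.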 The source made the active and inactive calls. No stated cut-off is given here; in the data, active = GI50 up to about 1.1 µM and inactive = higher.

What was measured:
Experiment in all cases: NCI anticancer screen, dose series, 48 h
[1] = system: SF-268
[2] = system: NCI-H522
[3] = system: UACC-62
[4] = system: NCI-H23
[5] = system: KM12
[6] = system: HCT-116
[7] = system: OVCAR-3
[8] = system: EKVX
[9] = system: HT-29
[10] = system: SK-MEL-28
[11] = system: HL-60
[12] = system: IGROV-1
[13] = system: HOP-92
[14] = system: DLD-1
[15] = system: SK-MEL-2
[16] = system: RPMI-8226
[17] = system: U-251
[18] = system: A549
[19] = system: SN12C
[20] = system: HCC 2998
[21] = system: 786-0
[22] = system: K562
[23] = system: SF-295
[24] = system: M14
[25] = system: SW-620
[26] = system: OVCAR-4
[27] = system: NCI-H226
[28] = system: RXF 393
[29] = system: SF-539
[30] = system: KM-20L2
[31] = system: CCRF-CEM
[32] = system: NCI-H460
[33] = system: SK-OV-3
[34] = system: SNB-78
[35] = system: UACC-257
[36] = system: SK-MEL-5
[37] = system: HOP-18
[38] = system: UO-31
[39] = system: LXFL 529
[40] = system: A498
[41] = system: HCT-15
[42] = system: SNB-19
[43] = system: COLO 205
[44] = system: DMS-114
[45] = system: MCF7
[46] = system: OVCAR-5
[47] = system: DMS-273
[48] = system: LOX IMVI
[49] = system: HOP-62
[50] = system: CAKI-1
[51] = system: SNB-75
[52] = system: M19-MEL
[53] = system: MOLT-4
[54] = system: NCI/ADR-RES
[55] = system: Malme-3M
[56] = system: XF498
[57] = system: OVCAR-8

SMILES: CCOc1ccc2[nH]c3c(C)c4cc[n+](C)cc4c(C)c3c2c1
- GI50 [1]: 184 nM (active)
- GI50 [2]: 838 nM (active)
- GI50 [3]: 1.84 µM (inactive)
- GI50 [4]: 929 nM (active)
- GI50 [5]: 1.57 µM (inactive)
- GI50 [6]: 1.82 µM (inactive)
- GI50 [7]: 2.52 µM (inactive)
- GI50 [8]: 2.57 µM (inactive)
- GI50 [9]: 3.25 µM (inactive)
- GI50 [10]: 2.24 µM (inactive)
- GI50 [11]: 4.67 µM (inactive)
- GI50 [12]: 2.18 µM (inactive)
- GI50 [13]: 1.98 µM (inactive)
- GI50 [14]: 900 nM (active)
- GI50 [15]: 1.51 µM (inactive)
- GI50 [16]: 11.3 µM (inactive)
- GI50 [17]: 0.115 µM (active)
- GI50 [18]: 1.18 µM (inactive)
- GI50 [19]: 140 nM (active)
- GI50 [20]: 3 µM (inactive)
- GI50 [21]: 149 nM (active)
- GI50 [22]: 1.58 µM (inactive)
- GI50 [23]: 125 nM (active)
- GI50 [24]: 5.81 µM (inactive)
- GI50 [25]: 1.28 µM (inactive)
- GI50 [26]: 2.54 µM (inactive)
- GI50 [27]: 264 nM (active)
- GI50 [28]: 6.41 µM (inactive)
- GI50 [29]: 363 nM (active)
- GI50 [30]: 3.35 µM (inactive)
- GI50 [31]: 1.98 µM (inactive)
- GI50 [32]: 1.94 µM (inactive)
- GI50 [33]: 2.88 µM (inactive)
- GI50 [34]: 1.09 µM (active)
- GI50 [35]: 2.97 µM (inactive)
- GI50 [36]: 1.36 µM (inactive)
- GI50 [37]: 2.62 µM (inactive)
- GI50 [38]: 16.6 µM (inactive)
- GI50 [39]: 220 nM (active)

SMILES: C=C1C(=O)C[C@@]23CCC[C@@]12CC(OCOC)C3 (stereo partly drawn)
- GI50 [40]: 4.69 µM (inactive)
- GI50 [1]: 4560 nM (inactive)
- GI50 [2]: 387 nM (active)
- GI50 [41]: 1360 nM
- GI50 [3]: 2.61 µM (inactive)
- GI50 [4]: 3430 nM (inactive)
- GI50 [42]: 14.6 µM (inactive)
- GI50 [5]: 3.08 µM (inactive)
- GI50 [6]: 2.18 µM (inactive)
- GI50 [7]: 2.72 µM (inactive)
- GI50 [8]: 6.46 µM (inactive)
- GI50 [9]: 1.99 µM (inactive)
- GI50 [10]: 2.69 µM (inactive)
- GI50 [43]: 3.8 µM (inactive)
- GI50 [44]: 1.91 µM (inactive)
- GI50 [45]: 1.83 µM (inactive)
- GI50 [11]: 2.05 µM (inactive)
- GI50 [12]: 1.85 µM (inactive)
- GI50 [13]: 2.32 µM (inactive)
- GI50 [14]: 1840 nM (inactive)
- GI50 [15]: 4.16 µM (inactive)
- GI50 [16]: 2.55 µM (inactive)
- GI50 [17]: 8.47 µM (inactive)
- GI50 [18]: 13.5 µM (inactive)
- GI50 [46]: 3.61 µM (inactive)
- GI50 [47]: 2.4 µM (inactive)
- GI50 [19]: 1930 nM (inactive)
- GI50 [20]: 6.35 µM (inactive)
- GI50 [48]: 1.61 µM (inactive)
- GI50 [49]: 12 µM (inactive)
- GI50 [22]: 3.12 µM (inactive)
- GI50 [50]: 2.3 µM (inactive)
- GI50 [23]: 5300 nM (inactive)
- GI50 [51]: 2.1 µM (inactive)
- GI50 [25]: 2.07 µM (inactive)
- GI50 [52]: 3.59 µM (inactive)
- GI50 [26]: 2.19 µM (inactive)
- GI50 [53]: 2.5 µM (inactive)
- GI50 [27]: 2000 nM (inactive)
- GI50 [28]: 0.637 µM (active)
- GI50 [54]: 2.11 µM (inactive)
- GI50 [29]: 3240 nM (inactive)
- GI50 [30]: 2.83 µM (inactive)
- GI50 [31]: 1.62 µM (inactive)
- GI50 [32]: 2.74 µM (inactive)
- GI50 [55]: 2.84 µM (inactive)
- GI50 [33]: 6.67 µM (inactive)
- GI50 [34]: 4.8 µM (inactive)
- GI50 [56]: 3.12 µM (inactive)
- GI50 [57]: 3.09 µM (inactive)
- GI50 [35]: 2.5 µM (inactive)
- GI50 [36]: 3.33 µM (inactive)
- GI50 [37]: 3.6 µM (inactive)
- GI50 [38]: 5.46 µM (inactive)
